Reference: PMC7026418, “The kinase polypharmacology landscape of clinical PARP inhibitors” (Scientific Reports, 2020)
Where a chain is given by its changes, count along the chain named. Like-named read-outs stand apart in the source and are kept apart here. One block for each compound: values may come before it.

Columns and labels:
Assay in all cases: biochemical
Design in all cases: DiscoveRx KINOMEscan active site-directed competition binding; percent of control kinase bound to immobilised ligand
[1] = target: T1, RSK4(Kin.Dom.2-C-terminal) (Homo sapiens, UniProt Q9UK32)
T1 construct: gene RPS6KA6; Kin.Dom.2-C-terminal

FLT3(D835V) = target: T2, FLT3(D835V) (Homo sapiens, UniProt P36888, D835V)
T2 sequence (P36888 1-993 D835V): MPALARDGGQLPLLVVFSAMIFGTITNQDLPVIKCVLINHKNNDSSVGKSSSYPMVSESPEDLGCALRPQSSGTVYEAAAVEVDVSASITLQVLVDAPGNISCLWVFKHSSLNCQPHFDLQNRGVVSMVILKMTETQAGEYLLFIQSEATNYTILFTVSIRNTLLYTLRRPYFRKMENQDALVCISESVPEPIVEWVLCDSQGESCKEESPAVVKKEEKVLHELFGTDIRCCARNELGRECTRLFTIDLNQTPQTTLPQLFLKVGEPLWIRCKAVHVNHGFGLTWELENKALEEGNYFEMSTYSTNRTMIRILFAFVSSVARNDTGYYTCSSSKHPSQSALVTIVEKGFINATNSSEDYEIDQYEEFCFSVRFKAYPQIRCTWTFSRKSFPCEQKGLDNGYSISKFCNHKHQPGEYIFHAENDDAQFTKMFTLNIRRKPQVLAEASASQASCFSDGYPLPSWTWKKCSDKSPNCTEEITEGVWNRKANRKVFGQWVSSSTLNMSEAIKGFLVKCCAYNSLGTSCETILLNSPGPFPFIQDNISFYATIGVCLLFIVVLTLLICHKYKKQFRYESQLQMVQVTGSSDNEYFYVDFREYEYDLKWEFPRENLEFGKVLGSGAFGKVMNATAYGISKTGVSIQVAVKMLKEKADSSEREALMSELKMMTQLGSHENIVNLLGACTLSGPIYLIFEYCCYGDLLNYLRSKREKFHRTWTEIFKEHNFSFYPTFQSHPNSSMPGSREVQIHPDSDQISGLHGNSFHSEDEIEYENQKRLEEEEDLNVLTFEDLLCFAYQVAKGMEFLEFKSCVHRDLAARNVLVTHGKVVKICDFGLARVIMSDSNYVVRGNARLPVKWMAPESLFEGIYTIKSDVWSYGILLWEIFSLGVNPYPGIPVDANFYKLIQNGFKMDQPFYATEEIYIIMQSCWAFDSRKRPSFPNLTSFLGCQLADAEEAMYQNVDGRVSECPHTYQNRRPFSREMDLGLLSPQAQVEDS

CSNK1A1L = target: T3, CSNK1A1L (Homo sapiens, UniProt Q8N752)
T3 sequence (Q8N752 1-337): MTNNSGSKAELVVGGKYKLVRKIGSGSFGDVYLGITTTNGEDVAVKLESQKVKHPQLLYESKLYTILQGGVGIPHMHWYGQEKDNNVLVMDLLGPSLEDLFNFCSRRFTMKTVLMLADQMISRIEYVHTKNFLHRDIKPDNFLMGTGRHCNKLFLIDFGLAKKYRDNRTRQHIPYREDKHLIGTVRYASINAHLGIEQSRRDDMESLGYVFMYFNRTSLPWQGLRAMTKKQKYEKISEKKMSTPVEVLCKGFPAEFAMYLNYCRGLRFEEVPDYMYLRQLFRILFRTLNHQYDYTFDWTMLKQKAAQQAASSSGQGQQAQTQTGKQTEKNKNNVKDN

PIK3CA(H1047Y) = PIK3CA(H1047Y) (Homo sapiens, UniProt P42336, H1047Y)
FLT3(N841I) = target: T4, FLT3(N841I) (Homo sapiens, UniProt P36888, N841I)
T4 sequence (P36888 1-993 N841I): T2 sequence (P36888 1-993 D835V) with V835D, N841I

CLK4 = CLK4 (Homo sapiens, UniProt Q9HAZ1)
[2] = read-out: Olaparib / %Ctrl @ 10000nM
[3] = read-out: Talazoparib (BMN 673) / %Ctrl @ 10000nM
[4] = read-out: Rucaparib / %Ctrl @ 10000nM, binding competition, % of control
[5] = binding competition, % of control
[6] = read-out: Niraparib (MK-4827) / %Ctrl @ 10000nM

CLK4, sequence (Q9HAZ1 whole entry): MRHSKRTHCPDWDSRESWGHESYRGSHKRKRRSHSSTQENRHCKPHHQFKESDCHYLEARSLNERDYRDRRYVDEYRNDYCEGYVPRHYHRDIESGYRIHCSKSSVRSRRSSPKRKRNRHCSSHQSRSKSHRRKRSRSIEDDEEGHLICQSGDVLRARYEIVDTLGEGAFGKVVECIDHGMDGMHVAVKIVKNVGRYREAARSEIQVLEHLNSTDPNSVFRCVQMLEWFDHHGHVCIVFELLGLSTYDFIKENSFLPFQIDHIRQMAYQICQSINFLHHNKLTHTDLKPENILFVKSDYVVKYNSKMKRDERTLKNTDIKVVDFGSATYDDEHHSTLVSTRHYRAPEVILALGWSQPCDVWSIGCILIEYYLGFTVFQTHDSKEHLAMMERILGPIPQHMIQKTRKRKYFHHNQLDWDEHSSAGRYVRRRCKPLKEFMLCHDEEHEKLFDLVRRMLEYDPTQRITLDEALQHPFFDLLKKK
T1 sequence (Q9UK32 whole entry): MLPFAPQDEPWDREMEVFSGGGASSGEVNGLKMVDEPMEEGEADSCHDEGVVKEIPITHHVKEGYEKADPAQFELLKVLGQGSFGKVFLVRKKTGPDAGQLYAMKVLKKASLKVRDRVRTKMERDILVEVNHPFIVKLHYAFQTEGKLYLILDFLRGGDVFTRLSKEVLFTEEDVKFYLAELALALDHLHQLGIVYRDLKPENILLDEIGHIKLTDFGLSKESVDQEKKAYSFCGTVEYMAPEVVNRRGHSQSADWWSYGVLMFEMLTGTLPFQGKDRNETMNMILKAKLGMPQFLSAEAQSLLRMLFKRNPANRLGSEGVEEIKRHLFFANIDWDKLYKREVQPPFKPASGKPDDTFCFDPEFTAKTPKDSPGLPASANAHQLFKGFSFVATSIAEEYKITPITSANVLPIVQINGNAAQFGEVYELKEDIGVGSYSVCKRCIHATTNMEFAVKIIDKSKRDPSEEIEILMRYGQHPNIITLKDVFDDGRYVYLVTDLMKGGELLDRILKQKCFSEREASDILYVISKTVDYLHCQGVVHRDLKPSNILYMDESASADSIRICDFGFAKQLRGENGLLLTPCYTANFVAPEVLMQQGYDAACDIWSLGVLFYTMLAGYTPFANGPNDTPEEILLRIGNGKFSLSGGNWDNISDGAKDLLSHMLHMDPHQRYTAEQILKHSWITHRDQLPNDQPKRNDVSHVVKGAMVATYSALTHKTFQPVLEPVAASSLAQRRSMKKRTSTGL
PIK3CA(H1047Y), sequence (P42336 whole entry H1047Y): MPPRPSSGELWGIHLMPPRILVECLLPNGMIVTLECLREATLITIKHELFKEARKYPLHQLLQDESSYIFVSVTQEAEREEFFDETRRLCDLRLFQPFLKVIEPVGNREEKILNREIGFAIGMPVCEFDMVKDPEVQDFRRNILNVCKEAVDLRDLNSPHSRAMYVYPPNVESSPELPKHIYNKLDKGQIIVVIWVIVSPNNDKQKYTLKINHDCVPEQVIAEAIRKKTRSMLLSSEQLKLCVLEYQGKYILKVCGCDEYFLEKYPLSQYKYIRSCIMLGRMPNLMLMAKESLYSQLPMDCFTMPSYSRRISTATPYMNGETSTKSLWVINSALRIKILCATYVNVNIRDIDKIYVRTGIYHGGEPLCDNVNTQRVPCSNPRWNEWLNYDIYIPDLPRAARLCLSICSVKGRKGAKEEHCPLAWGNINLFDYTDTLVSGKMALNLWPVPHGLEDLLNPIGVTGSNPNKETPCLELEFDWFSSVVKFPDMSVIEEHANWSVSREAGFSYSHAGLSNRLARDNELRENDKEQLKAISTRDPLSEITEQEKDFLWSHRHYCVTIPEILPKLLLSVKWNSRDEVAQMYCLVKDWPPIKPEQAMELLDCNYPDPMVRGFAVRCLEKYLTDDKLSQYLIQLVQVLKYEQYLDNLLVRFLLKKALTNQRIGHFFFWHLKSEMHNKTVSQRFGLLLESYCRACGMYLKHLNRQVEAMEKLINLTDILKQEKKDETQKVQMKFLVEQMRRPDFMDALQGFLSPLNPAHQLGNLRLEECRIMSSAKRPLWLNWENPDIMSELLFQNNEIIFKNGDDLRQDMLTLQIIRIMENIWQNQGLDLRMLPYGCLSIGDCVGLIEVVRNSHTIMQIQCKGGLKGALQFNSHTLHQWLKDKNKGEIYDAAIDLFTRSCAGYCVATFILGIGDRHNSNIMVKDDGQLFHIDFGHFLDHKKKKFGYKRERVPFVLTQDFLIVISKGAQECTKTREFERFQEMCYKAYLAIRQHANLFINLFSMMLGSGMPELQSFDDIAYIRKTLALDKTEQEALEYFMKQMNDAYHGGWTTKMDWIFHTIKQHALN

percent of control binding at 10 µM [1, 2]: 92% | percent of control binding at 10 µM (FLT3(D835V); [2]): 100% | percent of control binding at 10 µM (CSNK1A1L; [2]): 99% | percent of control binding at 10 µM (PIK3CA(H1047Y); [2]): 100% | percent of control binding at 10 µM (FLT3(N841I); [2]): 95% | percent of control binding at 10 µM (CLK4; [2]): 92%
SMILES: O=C(c1cc(Cc2n[nH]c(=O)c3ccccc23)ccc1F)N1CCN(C(=O)C2CC2)CC1 [Olaparib]

percent of control binding at 10 µM [1, 3]: 97% | percent of control binding at 10 µM (FLT3(D835V); [3]): 100% | percent of control binding at 10 µM (CSNK1A1L; [3]): 100% | percent of control binding at 10 µM (PIK3CA(H1047Y); [3]): 89% | percent of control binding at 10 µM (FLT3(N841I); [3]): 100% | percent of control binding at 10 µM (CLK4; [3]): 100%
SMILES: Cn1ncnc1[C@H]1c2n[nH]c(=O)c3cc(F)cc(c23)N[C@@H]1c1ccc(F)cc1 [Talazoparib]

percent of control binding at 10 µM [1, 4]: 82% | Rucaparib / %Ctrl @ 10000nM (FLT3(D835V); [5]): 15% | percent of control binding at 10 µM (CSNK1A1L; [4]): 86% | percent of control binding at 10 µM (PIK3CA(H1047Y); [4]): 75% | Rucaparib / %Ctrl @ 10000nM (FLT3(N841I); [5]): 64% | percent of control binding at 10 µM (CLK4; [4]): 40%
SMILES: CNCc1ccc(-c2[nH]c3cc(F)cc4c3c2CCNC4=O)cc1 [Rucaparib]

SMILES: NC(=O)c1cccc2cn(-c3ccc([C@@H]4CCCNC4)cc3)nc12 [Niraparib]
percent of control binding at 10 µM [1, 6]: 100% | percent of control binding at 10 µM (FLT3(D835V); [6]): 83% | percent of control binding at 10 µM (CSNK1A1L; [6]): 76% | percent of control binding at 10 µM (PIK3CA(H1047Y); [6]): 66% | percent of control binding at 10 µM (FLT3(N841I); [6]): 77% | percent of control binding at 10 µM (CLK4; [6]): 52%
